Values quoted from earlier work, collected in patent publication US20120263660A1, “Hair Loss Treatment” (POP TEST CORTISOL LLC, priority 2011, published 2012).

Key:
[1] = biological target: T1, glucocorticoid receptor [GR] (Homo sapiens, UniProt P04150); settings: disclosed in U.S. Pat. No. 6,011,025
T1 sequence (P04150 1-777): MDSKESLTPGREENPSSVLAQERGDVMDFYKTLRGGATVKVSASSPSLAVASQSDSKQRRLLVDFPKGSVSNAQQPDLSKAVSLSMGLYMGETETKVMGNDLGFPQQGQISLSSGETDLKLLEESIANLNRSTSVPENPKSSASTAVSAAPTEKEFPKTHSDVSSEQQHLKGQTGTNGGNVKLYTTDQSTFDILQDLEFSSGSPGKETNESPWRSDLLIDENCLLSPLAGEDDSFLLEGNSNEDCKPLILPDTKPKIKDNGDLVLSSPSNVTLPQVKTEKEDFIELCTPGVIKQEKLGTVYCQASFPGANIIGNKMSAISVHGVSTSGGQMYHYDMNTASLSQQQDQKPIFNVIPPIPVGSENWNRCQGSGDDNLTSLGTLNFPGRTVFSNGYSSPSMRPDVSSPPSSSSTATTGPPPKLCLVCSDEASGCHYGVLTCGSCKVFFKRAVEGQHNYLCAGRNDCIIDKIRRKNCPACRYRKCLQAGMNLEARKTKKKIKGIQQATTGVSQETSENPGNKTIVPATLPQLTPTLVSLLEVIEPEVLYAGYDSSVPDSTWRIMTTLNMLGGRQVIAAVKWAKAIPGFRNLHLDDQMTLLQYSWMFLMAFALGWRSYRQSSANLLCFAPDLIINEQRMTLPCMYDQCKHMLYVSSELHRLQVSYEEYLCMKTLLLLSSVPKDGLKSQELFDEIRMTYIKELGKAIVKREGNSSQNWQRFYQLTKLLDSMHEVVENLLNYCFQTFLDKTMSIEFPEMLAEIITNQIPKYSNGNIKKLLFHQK

[2] = disclosed in U.S. Pat. No. 6,011,025
[3] = disclosed in U.S. Pat. No. 6,011,025; remark: listed apart in the source
progesterone receptor = biological target: T2, progesterone receptor (Homo sapiens, UniProt P06401); settings: specificity for GR blockade
T2 sequence (P06401 1-933): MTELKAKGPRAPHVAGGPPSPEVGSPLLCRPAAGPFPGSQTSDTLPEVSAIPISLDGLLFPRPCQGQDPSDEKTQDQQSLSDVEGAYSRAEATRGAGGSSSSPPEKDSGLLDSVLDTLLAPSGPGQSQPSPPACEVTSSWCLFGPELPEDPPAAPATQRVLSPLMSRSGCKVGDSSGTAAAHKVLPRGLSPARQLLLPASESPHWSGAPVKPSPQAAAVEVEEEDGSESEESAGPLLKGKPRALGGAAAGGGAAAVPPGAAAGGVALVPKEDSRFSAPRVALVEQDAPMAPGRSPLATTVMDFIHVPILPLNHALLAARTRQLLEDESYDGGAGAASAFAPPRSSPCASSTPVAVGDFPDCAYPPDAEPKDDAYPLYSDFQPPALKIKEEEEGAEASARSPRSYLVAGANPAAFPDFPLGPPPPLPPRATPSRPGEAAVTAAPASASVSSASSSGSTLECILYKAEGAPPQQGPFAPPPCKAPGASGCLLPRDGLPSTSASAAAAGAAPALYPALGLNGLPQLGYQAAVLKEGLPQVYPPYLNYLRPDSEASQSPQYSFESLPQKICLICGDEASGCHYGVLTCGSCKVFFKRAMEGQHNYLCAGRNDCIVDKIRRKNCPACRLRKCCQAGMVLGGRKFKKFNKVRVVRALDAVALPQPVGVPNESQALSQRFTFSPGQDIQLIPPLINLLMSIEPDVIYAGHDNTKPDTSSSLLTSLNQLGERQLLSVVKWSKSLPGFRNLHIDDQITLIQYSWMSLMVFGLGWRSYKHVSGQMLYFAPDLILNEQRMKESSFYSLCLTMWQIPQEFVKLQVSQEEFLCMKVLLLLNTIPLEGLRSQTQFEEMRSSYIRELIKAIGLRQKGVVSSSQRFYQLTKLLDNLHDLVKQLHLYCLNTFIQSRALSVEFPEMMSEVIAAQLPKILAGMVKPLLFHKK

estrogen receptor = settings: specificity for GR blockade
[4] = all phase I and phase II clinical trials already performed

In the case of `CC#C[C@]1(O)CC[C@H]2[C@@H]3CCC4=CC(=O)CCC4=C3[C@@H](c3ccc4c(c3)OCO4)C[C@@]21C` [ORG 34517], the GR binding affinity [1] is listed as “high”, the androgenic activity [2] is listed as “low” and the progestagenic activity [3] is listed as “low”. For the same molecule, the “cross-binding to progesterone receptor” value (progesterone receptor) was “without significant cross-binding”, the “cross-binding to estrogen receptor” value (estrogen receptor) was “without significant cross-binding” and the “significant toxicities and side effects” value [4] was “none were identified”.
